Laboratory results from US12702694B2, “Methods for identification, assessment, prevention, and treatment of metabolic disorders using SLIT2” (Dana-Farber Cancer Institute, Inc., priority 2015, dated 2026).

How the values were obtained:
Slit2 = Slit2 mRNA in adipose tissue after daily CL 316,243 injections; format: in vivo, Mus musculus; details: 3 days treatment, daily injections 1 mg/kg; did not reach statistical significance; FIG. 2F
Method: (§1) RNA was extracted from cultured cells or frozen tissue samples using TRIzol®, purified with QIAGEN RNeasy® minicolumns. Normalized RNA was reversed transcribed using a high-capacity cDNA reverse transcription lot (Applied Biosystems) and cDNA was analyzed by qRT-CPR. Relative mRNA levels were calculated using the comparative CT method and normalized to cyclophilin miRNA. All primers used are listed with their sequences in Table 3 as follows: […]

PKA signaling pathway [1] = test: Western blotting of PKA and related signaling in primary inguinal cells; format: cell-based, Mus musculus; details: H89 30 μM, 2 h, primary inguinal cells; FIG. 10C
Method: (§2) Inguinal and brown stromal-vascular fractions were obtained from 6 weeks old male or newborn mice (postnatal days 5-10) for white and brown fat cultures, respectively. Inguinal fat tissue was dissected and washed with PBS, minced and digested for 45 min at 37° C. in PBS containing 10 mM CaCl2), 2.4 U/ml dispase II (Roche) and 10 mg/ml collagenase D (Roche). Brown fat tissue was dissected, washed with PBS, minced and digested for 45 min at 37° C. in PBS containing 1.3 mM CaCl2, 123 mM NaCl, 5 mM KCl, 5.0 mM glucose, 100 mM HEPES, 4% BSA and 1.5 mg/ml collagenase B (Roche). Digested tissue was filtered through a 100-μm cell strainer and centrifuged at 600 g for 10 min. Pelleted inguinal stromal-vascular cells were grown to confluence and induced to differentiate by an adipogenic cocktail containing 0.02 μM insulin, 1 μM rosiglitazone, 5 μM dexamethasone, 0.5 μM isobuthylmethylxanthine. For differentiation of brown fat cells, 1 nM T3 and 125 μM indomethacin were also added to the adipogenic cocktail. Two days after induction, cells were maintained in adipocyte culture medium containing 0.02 μM insulin and 1 μM rosiglitazone. Where indicated, cells were treated with forskolin (10 μM), norepinephrine (100 nM) for 4 h or with recombinant proteins (1 μg/ml, R&D systems) for 24 h or for the indicated times. For adenoviral overexpression of Slit2-FL, Slit2-N, Slit2-C, LacZ or Cre, virus was added at day 2 of differentiation at a titer of 10^8 particles/well and cells were analyzed at day 6-7. Where indicated, cells were treated with the drugs Erlotinib (SelleckChem), Lapatinib (Santa Cruz), PD0325901 (Santa Cruz), Propranolol (SelleckChem), H89 dihydrochloride (Santa Cruz), SQ-22536 (Santa Cruz) for indicated time points and concentrations.
For Western blotting, homogenized tissues, whole cell lysates, or concentrated serum free conditioned medium were lysed in RIPA buffer containing protease inhibitor cocktail (Thermo Scientific) and phosphatase inhibitor cocktail (Thermo Scientific), separated by SDS-PAGE and transferred to Immobilon-P® membranes (Millipore). For Western blotting of plasma samples, 1 μl of plasma was prepared containing 2× sample buffer (Invitrogen) with reducing agent, boiled and analyzed using Western blot against V5, FLAG, or the indicated antibody. V5-antibody was from Life Technologies and anti-Flag M2-HRP (A8592) from Sigma Aldrich. Anti-Slit2 antibody used was from Abcam (Abcam ab134166). Phospho-PKA Substrate, phospho-PKC Substrate, phospho-ERK1/2, total ERK, phospho-AKT, total AKT, phospho-AMPK, total AMPK, phospho-ATGL, ATGL, phospho-EGFR and EGFR were from Cell Signaling. Protein array was from R&D Systems (Proteome Profiler Mouse Phospho-RTK Array Kit, ARY014). Silverstain (SilverQuest™ Silver Staining Kit, LC6070) was purchased from Thermo Fisher.

primary inguinal cells = test: Thermogenic gene expression in Slit2-C transduced primary inguinal cells co-treated with inhibitors; format: cell-based, Mus musculus
Method: as §2, with “Where indicated, cells were treated with the drugs Erlotinib (SelleckChem), Lapatinib (Santa Cruz), PD0325901 (Santa Cruz), Propranolol (SelleckChem), H89 dihydrochloride (Santa Cruz), SQ-22536 (Santa Cruz) for indicated time points and concentrations.” left out
as §1, with “[…].” for “miRNA. All primers used are listed with their sequences in Table 3 as follows:”

PKA signaling pathway [2] = test: Western blotting of PKA and related signaling in primary inguinal cells; format: cell-based, Mus musculus; details: 20 nM NE; FIG. 10M
brown fat = details: humans; Cypess et al. (2015); cited from earlier work
[3] = system: cell surface of primary inguinal adipocytes; test: Cell surface binding by confocal laser scanning microscopy; set-up: species or system Mus musculus; details: purified FLAG-tagged protein, live adipocytes incubated at 4° C.; FIGS. 10L, 11E
Method: Live, primary differentiated adipocytes were incubated with recombinant Slit2-C FLAG-tagged protein for 1 h at 4° C. before fixation and staining with a fluorescent antibody for visualization of cell-surface bound proteins using a confocal laser scanning microscope.
Experiments were performed using a Nikon Ti w/A1R confocal inverted microscope equipped with a Nikon Plan Apo 60x/NA 1.4 oil immersion objective lens using excitation wavelengths of 405 and 561 nm. All experiments were performed under confocal imaging conditions (pinhole <1 airy unit) and images taken with the same laser settings. Image analysis was performed using the Nikon Elements acquisition software. Primary inguinal cells differentiated until day 5 was gently trypsinized and seeded onto poly-D-lysine-coated coverslips (Corning Biocoat 12 mm German Glass coverslips, #08-774-385) in a 6-well plate at a density of 10,000 cells per well in growth medium. On the next day, cell surface binding was performed by adding 1 μg/ml purified protein to cells or FLAG peptide in PBS in serum-containing medium for 1 h at 4° C. on ice. Cells were washed three times in PBS, fixed in 4% paraformaldehyde for 10 min at 4° C., and washed with PBS three times before blocking with 5% BSA in PBS for 1 h at room temperature. Cells treated with protein or FLAG peptide alone were stained using 1:200 anti-Flag M2-HRP overnight at 4° C. […]

## C[C@H](Cc1ccc2c(c1)OC(C(=O)[O-])(C(=O)[O-])O2)NC[C@H](O)c1cccc(Cl)c1.[Na+].[Na+] [CL316, 243]
Slit2
  Slit2 gene expression in iWAT: trend to an increase

## Cl.Cl.O=S(=O)(NCCNC/C=C/c1ccc(Br)cc1)c1cccc2cnccc12 [H89, H89 dihydrochloride]
PKA signaling pathway [1]
  phosphorylation of PKA substrates: significantly reduced
Primary inguinal cells; H89 30 μM, FIG. 10D
  Dio2 mRNA in cells receiving Slit2-C: down to baseline levels
  reduction of Ucp1 mRNA in cells receiving Slit2-C: 50%

## NC[C@H](O)c1ccc(O)c(O)c1 [NE, norepinephrine]
PKA signaling pathway [2]
  time of treatment to full PKA phosphorylation response: ≤ 5 min

## CC(C)NCC(O)COc1cccc2ccccc12 (stereo not drawn) [Propranolol]
Primary inguinal cells; propranolol 100 nM for 24 h, FIG. 10H
  inhibition of Slit2-C induced thermogenesis: did not inhibit

## Nc1nc(CC(=O)Nc2ccc(CCNC[C@H](O)c3ccccc3)cc2)cs1 [mirabegron]
Brown fat
  brown fat activation: apparent activation of brown fat
  resting metabolic rate: increased resting metabolic rate

B1: Pm20D1: another FLAG-tagged protein secreted from thermogenic adipocytes, control for specific staining (protein)
chain: STGPRSRENRGASRIPSQFSEEERVAIKEALKGAIQIPTVSFSHEESNTTALAEFGEYIRKAFPTVFHSSLVQHEVVAKYSHLFTIQGSDPSLQPYMLMAHIDVVPAPEEGWEVPPFSGLERNGFIYGRGALDNKNSVMAILHALELLLIRNYSPKRSFFIALGHDEEVSGEKGAQKISALLQARGVQLAFLVDEGSFILEGFIPNLEKPVAMISVTEKGALDLMLQVNMTPGHSSAPPKETSIGILSAAVSRLEQTPMPNMFGGGPLKKTMKLLANEFSFPINIVLRNLWLFHPIVSRIMERNPITNALVRTTTALTMFNAGIKVNVIPPLAQATINCRIHPSQTVHEVLELVKNTVADDRVQLHVLRSFEPLPISPSDDQAMGYQLLQETIRSVFPEVDIVVPGICIANTDTRHYANITNGMYRFNPLPLNPQDFSGVHGINEKVSVQNYQNQVKFIFEFIQNADTYKEPVPHLHEL
modifications: left off: small tags and cut ends
notes: another FLAG-tagged protein secreted from thermogenic adipocytes, control for specific staining
[3]
  binding to the cell surface of adipocytes: very limited binding
